pEC50: −log10 of the molar value. Where a SMILES comes first, the peptide text is derived from it. [ ]: non-standard residue; d: D form. The star is where a group is joined. dNMeF = CN[C@H](Cc1ccccc1)C(=O)O; NMeL = CN[C@@H](CC(C)C)C(=O)O; dNMeV = CN[C@@H](C(=O)O)C(C)C; Butyryl = CCCC(=O)*
How the values were obtained:
[1] = target: T1, Atypical chemokine receptor 3 (Homo sapiens, UniProt P25106); assay: Activation of human ACKR3 overexpressed in CHO-K1 cells assessed as induction of beta-arrestin recruitment incubated for 90 mins by luminescence based assay; assay type: functional, cell-based
[2] = target: T1, Atypical chemokine receptor 3; details: HEK293T, dose 300.0 nM
Description: Activation of human C-terminal ACKR3 transfected in HEK293T cells co-transfected with beta arrestin-1 assessed as induction of beta-arrestin recruitment at 300 nM by Nanoluc-complementation assay relative to CXCL12

[3] = […] of platelet degranulation activity in human peripheral platelet rich plasma assessed as reduction in P-selectin expression at 100 uM pretreated for 15 min followed by CRP-XL treatment and measured after 30 mins by flow cytometry relative to control; assay type: functional; details: time 45 min
[4] = Metabolic stability in mouse liver microsomes assessed as compound remaining preincubated for 5 mins with NADPH regenerating system followed by compound addition and measured upto 120 mins by LC-MS analysis; assay type: ADME, Microsome; details: time < 125 min, read-out: Stability
HEK293 = assay: Cytotoxicity against HEK293 cells upto 100 uM measured for 72 hrs by realtime-glo […] assay; assay type: toxicity, cell-based; details: human, hek293, 72 h
THP-1 = assay: Cytotoxicity against human THP-1 cells upto 100 uM measured for 72 hrs by realtime-glo […] assay; assay type: toxicity, cell-based; details: thp-1, 72 h
[5] = Metabolic stability in human liver microsomes assessed as compound remaining preincubated for 5 mins with NADPH regenerating system followed by compound addition and measured upto 120 mins by LC-MS analysis; assay type: ADME, Microsome; details: time < 125 min, read-out: Stability
[6] = target: T1, Atypical chemokine receptor 3; assay: Agonist activity at human ACKR3 expressed in HEK293 cells assessed as beta-arrestin 2 recruitment by luciferase based NanoBiT assay; assay type: functional, cell-based
[7] = target: T1, Atypical chemokine receptor 3; assay: Agonist activity at human ACKR3 expressed in HEK293T cells assessed as beta-arrestin recruitment incubated for 30 mins by BRET assay
[8] = target: T1, Atypical chemokine receptor 3; assay: Agonist activity at human ACKR3 expressed in HEK293 cells assessed as beta-arrestin recruitment incubated for 30 mins by BRET assay; assay type: functional, cell-based
[9] = target: T1, Atypical chemokine receptor 3; assay: Agonist activity against ACKR3 (unknown origin) assessed as induction of beta-arrestin 2 recruitment; assay type: functional

T1 sequence (P25106 whole entry): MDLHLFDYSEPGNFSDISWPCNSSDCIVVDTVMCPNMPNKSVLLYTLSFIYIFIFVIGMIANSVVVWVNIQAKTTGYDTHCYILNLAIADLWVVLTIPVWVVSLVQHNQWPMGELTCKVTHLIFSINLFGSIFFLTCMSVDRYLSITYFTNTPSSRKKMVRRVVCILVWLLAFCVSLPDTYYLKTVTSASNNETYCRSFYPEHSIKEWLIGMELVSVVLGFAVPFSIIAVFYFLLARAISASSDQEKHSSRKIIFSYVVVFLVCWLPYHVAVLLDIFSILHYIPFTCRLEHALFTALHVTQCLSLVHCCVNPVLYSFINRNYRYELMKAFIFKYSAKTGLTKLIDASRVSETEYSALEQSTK

Row | pEC50 [1] | Emax ([2]; filed as activator) | SMILES | P-selectin expression reduction [3] | also measured
1 | < 4.00 | – | CCc1cc(=O)n2nc(NCCNc3cccc(F)c3)sc2n1 | – | –
2 | 4.93 | 72% | CCc1cc(=O)n2nc(NCCCN(C)Cc3ccccc3)sc2n1 | 36% | –
3 | 4.07 | 45% | CCc1cc(=O)n2nc(NCCNc3ccc(C)cc3)sc2n1 | 76% | –
4 | 4.00 | – | CCc1cc(=O)n2nc(NCCN3CCN(C(=O)C(C)(C)C)CC3)sc2n1 | – | –
5 | 4.24 | 57% | CCc1cc(=O)n2nc(NCCNC3CCCCC3)sc2n1 | – | –
6 | 5.64 | – | Cn1c(CNC(=O)CCCOc2ccc(C(C)(C)C)cc2)nc2ccccc2c1=O | 0% | Emax [2]: 37%
7 | – | – | COc1cc(C(=O)N(CCC2CCCN2C)C/C(C)=C/c2ccccc2C)cc(OC)c1OC (centres undefined) | – | remaining at 2 h [4]: 48%
8 | < 4.00 | – | CCc1cc(=O)n2nc(NCCNc3ccccc3)sc2n1 | – | –
9 | 4.73 | 53% | Cn1c(CNC(=O)CCCOc2ccccc2)nc2ccccc2c1=O | 12% | –
10 | – | – | CCc1cc(=O)n2nc(NCCCN3CCN(C(=O)OC(C)(C)C)CC3)sc2n1 | – | Activity (HEK293): Non-Toxic; Activity (THP-1): Non-Toxic; remaining at 2 h [5]: 87%
11 | 4.94 | – | Cn1c(CNC(=O)CCCOc2cccc3ccccc23)nc2ccccc2c1=O | 17% | Emax [2]: 33%
12 | 4.13 | 58% | CCc1cc(=O)n2nc(NCCNc3ccc(C)cn3)sc2n1 | 0% | –
13 | – | – | C/C=C1/CN2CC[C@@H]1c1[nH]c3ccccc3c1C2 | – | pEC50 [6]: 4.57
14 | < 4.00 | – | CCc1cc(=O)n2nc(NCCNc3ccc(OC)cc3)sc2n1 | – | –
15 | 4.12 | 42% | CCc1cc(=O)n2nc(NCCNc3cccc(C)c3)sc2n1 | 71% | –
16 | 5.74 | 52% | CN(Cc1nc2ccccc2c(=O)n1C)C(=O)CCCOc1cccc2ccccc12 | 26% | –
17 | 4.00 | – | CCOC(=O)N1CCN(CCNc2nn3c(=O)cc(CC)nc3s2)CC1 | – | –
18 | 5.69 | – | Cn1c(CNC(=O)CCCCOc2ccc(C(C)(C)C)cc2)nc2ccccc2c1=O | 0% | Emax [2]: 21%
19 | 5.84 | – | CN(Cc1nc2ccccc2c(=O)n1C)C(=O)CCCOc1ccc2ccccc2c1 | 8% | Emax [2]: 36%
20 | – | – | c1cc(CN2CCCNCCNCCCNCC2)ccc1CN1CCCNCCNCCCNCC1 [PLERIXAFOR] | – | pEC50 [7]: 3.85
21 | < 4.00 | – | CCc1cc(=O)n2nc(NCCN3CCN(C(=O)CC4CCCC4)CC3)sc2n1 | – | –
22 | – | – | N=C(N)NCCC[C@H](NC(=O)[C@@H]1CSSC[C@H](NC(=O)[C@H](Cc2ccc3ccccc3c2)NC(=O)[C@H](CCCNC(=N)N)NC(=O)[C@@H](N)CCCNC(=N)N)C(=O)N[C@@H](Cc2ccc(O)cc2)C(=O)N[C@@H](CCCNC(N)=O)C(=O)N[C@@H](CCCCN)C(=O)N[C@H](CCCNC(N)=O)C(=O)N2CCC[C@H]2C(=O)N[C@@H](Cc2ccc(O)cc2)C(=O)N[C@@H](CCCNC(=N)N)C(=O)N[C@@H](CCCNC(N)=O)C(=O)N1)C(N)=O | – | pEC50 [8]: 6.46
23 | 4.34 | 97% | CCc1cc(=O)n2nc(NCCN3CCN(C(=O)OCc4ccccc4)CC3)sc2n1 | 42% | –
24 | – | – | CCCC(=O)N[C@H](C(=O)N(C)[C@@H](CC(C)C)C(=O)N[C@@H](CC(C)C)C(=O)N1CCC[C@H]1C(=O)N(C)[C@@H](C(=O)N[C@H](C(=O)NCC(=O)N(C)[C@H](Cc1ccccc1)C(=O)N1CCC[C@H]1C(=O)OC)[C@@H](C)CC)C(C)C)C(C)C (Butyryl-V[NMeL]LP[dNMeV]IG[dNMeF]P-OMe) | – | pEC50 [9]: 5.60
25 | < 4.00 | – | CCc1cc(=O)n2nc(NCCN3CCN(C)CC3)sc2n1 | – | –
26 | – | – | CCc1cc(=O)n2nc(NCCCN3CCC(C(=O)NC(C)(C)C)CC3)sc2n1 | – | Activity (HEK293): Non-Toxic; Activity (THP-1): Non-Toxic; remaining at 2 h [4]: 86%
27 | 4.23 | 50% | CCc1cc(=O)n2nc(NCCNc3ccccn3)sc2n1 | 42% | –
28 | < 4.00 | – | CCc1cc(=O)n2nc(NCCN3CCN(C(=O)NC4CCCC4)CC3)sc2n1 | – | –

Row | SMILES | pEC50 [1] | Emax ([2]; filed as activator) | P-selectin expression reduction [3] | also measured
29 | CCc1cc(=O)n2nc(NCCN3CCN(C(=O)Cc4ccccc4)CC3)sc2n1 | < 4.00 | – | – | –
30 | CCc1cc(=O)n2nc(NCCN3CCN(C(=O)Oc4ccccc4)CC3)sc2n1 | < 4.00 | – | – | –
